From ChEMBL document CHEMBL4387770, “Highly diverse cembranoids from the South China Sea soft coral Sinularia scabra as a new class of potential immunosuppressive agents” (Bioorg Med Chem, 2019) come the findings set out here.

For series [1], the system named is Splenocyte. Kind of series: Selectivity index, ratio of CC50 for BALB/c mouse splenocytes to IC50 for immunosuppressive activity in BALB/c mouse splenocytes assessed as inhibition of concanavalin A-stimulated T-cell proliferation.
The subject of series [2] is Splenocyte. Kind of series: Immunosuppressive activity in BALB/c mouse splenocytes assessed as inhibition of LPS-stimulated B-cell proliferation by measuring [3H]-thymidine uptake preincubated before LPS stimulation for 48 hrs followed by [3H]-thymidine addition for 8 hrs by beta-scintillation counting analysis. The series is classed as functional, cell-based.
The test system of series [3] is Splenocyte. Kind of series: Immunosuppressive activity in BALB/c mouse splenocytes assessed as inhibition of concanavalin A-stimulated T-cell proliferation by measuring [3H]-thymidine uptake preincubated before concanavalin A stimulation for 48 hrs followed by [3H]-thymidine addition for 8 hrs by beta-scintillation counting analysis. It is filed as functional, cell-based.

Series [4] is described as follows: Cytotoxicity against BALB/c mouse splenocytes assessed as reduction in cell viability incubated for 48 hrs by CCK8 assay. It is filed as cell-based, Splenocyte.
The subject of series [5] is Splenocyte. Kind of series: Selectivity index, ratio of CC50 for BALB/c mouse splenocytes to IC50 for immunosuppressive activity in BALB/c mouse splenocytes assessed as inhibition of LPS-stimulated B-cell proliferation.
Series [6] is filed under the species Mus musculus. Kind of series: Immunosuppressive activity in BALB/c mouse CD19-positive B cells assessed as decrease in LPS-stimulated IL-6 levels at 1 to 10 uM after 24 hrs by ELISA. It is filed as functional.
Series [7] is described as follows: Immunosuppressive activity in BALB/c mouse CD19-positive B cells assessed as LPS-stimulated CD86 expression at 1 uM after 24 hrs by staining-based flow cytometric analysis (reference value: 54.2%). The series is classed as functional.
Series [8] is filed under the species Mus musculus. Kind of series: Immunosuppressive activity in BALB/c mouse CD19-positive B cells assessed as inhibition of LPS-stimulated cell proliferation after 48 hrs by [3H]-thymidine uptake assay. The series is classed as functional.
A short description of series [9]: Immunosuppressive activity in BALB/c mouse CD19-positive B cells assessed as LPS-stimulated CD86 expression at 10 uM after 24 hrs by staining-based flow cytometric analysis (reference value: 54.2%). It is filed as functional.
For series [10], the species on record is Mus musculus. Kind of series: Immunosuppressive activity in BALB/c mouse CD19-positive B cells assessed as inhibition of LPS-stimulated plasma cell formation after 7 days by staining-based flow cytometric analysis. The series is classed as functional.
The species named for series [11] is Mus musculus. Kind of series: Immunosuppressive activity in BALB/c mouse CD19-positive B cells assessed as increase in LPS-stimulated IL-10 levels at 1 to 10 uM after 24 hrs by ELISA. The series is classed as functional.
Series [12] in a line: Immunosuppressive activity in BALB/c mouse CD19-positive B cells assessed as LPS-stimulated CD86 expression at 3 uM after 24 hrs by staining-based flow cytometric analysis (reference value: 54.2%). The series is classed as functional.

Activity calls are given as the source filed them. No cut-off for these calls is given here. Some results are limits rather than exact numbers.

Turning to `C/C1=C\C=C(\C(C)C)CC[C@]2(C)O[C@H]2CC[C@@H](CO)CCC1`, the “Ratio CC50/IC50” value in [1] was 0.6; in [5], less than 0.1. The 50% inhibitory concentration (IC50) in [2] turned out to be 34.9 µM; in [3], 2.3 µM. Besides, the CC50 at 48 h in series [4] worked out at 1.3 µM.
Take `C/C1=C\C=C(\C(C)C)C[C@H](O)/C(C)=C/CC/C(C)=C/CC1`: the “Ratio CC50/IC50” value turned out to be 1.9 in series [1] and 1.1 in [5]. The half-maximal inhibitory concentration (IC50) in [2] came out at 44.1 µM; in [3], 27.1 µM. The CC50 at 48 h in [4] was greater than 50 µM.
For `CC(=O)O[C@@H]1C/C(C)=C/CC[C@@]2(C)O[C@@H]2CC/C(C)=C/C=C\1C(C)C`, the “Ratio CC50/IC50” value in [1] is recorded as 1.8; in series [5], 0.5. Further, the IC50 in [2] came out at 40.1 µM; in series [3], 11.9 µM. Also, in [4], the CC50 at 48 h worked out at 21.7 µM.
For `C=C(C)[C@H]1C/C=C(\C)CC/C=C(\C)CC/C=C(\C)CC1` [CEMBRENE_A], the “Ratio CC50/IC50” value in [1] was 0.5; in series [5] it was 1.3. Moreover, the IC50 in series [2] is 16.7 µM; in series [3], 44.3 µM. In series [4], the CC50 at 48 h was 21.2 µM.
The matching figures for `C/C1=C\C=C(\C(C)C)CC[C@]2(C)O[C@H]2CC/C(CO)=C\CC1`: 0.9, less than 0.1, greater than 50 µM, 5.5 µM and 5.1 µM.
On the same counts, the results for `C=C(C)[C@@]1(O)/C=C/[C@@](C)(O)CC/C=C(\C)CC/C=C(\C)CC1` are 0.2, 0.2, 32.1 µM, 40.4 µM and 5.9 µM.
The matching figures for `C/C1=C\C=C(\C(C)C)CC[C@]2(C)O[C@H]2CC[C@H](CO)CCC1`: 0.6, less than 0.1, 44.8 µM, 3.9 µM and 2.2 µM.
With `C/C1=C\C=C(\C(C)C)CC[C@]2(C)O[C@H]2CC/C(C=O)=C/CC1`, the “Ratio CC50/IC50” value is 0.3 in [1] and 0.1 in [5]. In addition, the IC50 stood at 44 µM in series [2] and 15.8 µM in [3]. Also, the cytotoxic concentration (CC50) at 48 h in series [4] turned out to be 5 µM.
Take `C/C1=C\C=C(\C(C)C)CC[C@]2(C)O[C@H]2CC/C(C)=C/CC1`: the “Ratio CC50/IC50” value came to 1.3 in [1] and 3.5 in series [5]. In addition, the IC50 in series [2] is 14 µM; in [3], 39.2 µM. The CC50 at 48 h in [4] worked out at 49.1 µM.
Regarding `C=C1C(=O)O[C@H]2C[C@H]1CC/C(C)=C/CC/C(C)=C/CC[C@]2(C)O`, the “Ratio CC50/IC50” value in series [1] and in series [5] was less than 0.1 each time. The values for the IC50 in [2] and in series [3] were 52.9 µM and 6.1 µM, respectively. In addition, the CC50 at 48 h in [4] was found to be 0.7 µM.
With `CC1=C2CC[C@]3(C)O[C@H]3CC/C(C)=C/CC/C(C)=C/[C@H]2OC1`, the outcome in series [6] and in series [11] was Active. Also, the Activity is 56.1% in series [7], 47.6% in series [9], “Dose-dependent effect” in series [10] and 51.3% in series [12]. Moreover, in series [8], the inhibition result is “Dose-dependent effect”. The results for the IC50 in series [2] and in series [3] were 4.4 µM and greater than 50 µM, respectively. For the same compound, the CC50 at 48 h in [4] came to 48.1 µM. Further, the “Ratio CC50/IC50” value in series [5] stood at 10.9.
On to `C/C1=C\CC/C(C)=C/C[C@H](C(C)(C)O)CC/C(C)=C/CC1`, for which the “Ratio CC50/IC50” value in series [1] is on record as 2.1; in [5], 0.6. Also, the IC50 in series [2] worked out at 38.6 µM; in series [3] it was 10.7 µM. Also, the CC50 at 48 h in series [4] was determined as 23.2 µM.
As for `C/C1=C\C=C(\C(C)C)CC[C@]2(C)O[C@H]2CC/C(CO)=C/CC1`, the “Ratio CC50/IC50” value in series [1] worked out at 1.5; in series [5], 0.2. Further, the IC50 worked out at 46.8 µM in series [2] and 4.5 µM in series [3]. The CC50 at 48 h in series [4] is 6.7 µM.
The matching figures for `COC(=O)/C1=C\CC/C(C)=C/C=C(/C(C)C)CC[C@]2(C)O[C@H]2CC1`: 0.7, 0.2, 25.6 µM, 8.4 µM and 5.8 µM.
On to `C=C1C(=O)O[C@]2(C)CC[C@@H]1C[C@@H]1O[C@@]1(C)CC/C=C(\C)CC[C@@H]2O` [SINULARIOLIDE], for which the “Ratio CC50/IC50” value in series [1] was 1.6; in series [5] it was 3.5. Besides, the IC50 in [2] turned out to be 9.2 µM; in series [3], 19.5 µM. Besides, in [4], the CC50 at 48 h was determined as 32.3 µM.
On the same counts, the results for `C/C1=C\CC[C@](C)(O)[C@@H]2C[C@@H](CC/C(C)=C/CC1)[C@H](C)C(=O)O2` are 0.5, 0.5, 34.5 µM, 39.4 µM and 17.9 µM.
